ChEMBL document CHEMBL2311387, “Dose-dependent interaction of trans-resveratrol with biomembranes: effects on antioxidant property” (J Med Chem, 2013)
Activity calls are given as the source filed them. The rule behind the calls is not given here.

Key:
[1] = Antioxidant activity in planer lipid bilayer membrane assessed as reduction in 100 uM DPPH-induced charge transfer resistance at 100 uM by admittance spectroscopic analysis; format: functional, cell membranes; design: scale not given: the % may be the effect or the level left
[2] = Binding affinity to planer lipid bilayer assessed as change in diameter of semicircle pattern by admittance spectroscopic analysis; format: physicochemical
[3] = Binding affinity to planer lipid bilayer assessed as increase in cathodic current by cyclic voltammetric analysis; format: physicochemical
[4] = Antioxidant activity in planer lipid bilayer membrane assessed as inhibition of DPPH-induced reduction in diameter of semicircle at 50 to 100 uM by admittance spectroscopic analysis; format: functional, cell membranes
[5] = Binding affinity to planer lipid bilayer assessed as change in height of semicircle pattern by admittance spectroscopic analysis; format: physicochemical
[6] = Binding affinity to curcumin encapsulated liposomes assessed as curcumin release from unilamellar vesicles at 100 uM after 20 mins NMR spectroscopic analysis
[7] = Antioxidant activity in planer lipid bilayer membrane assessed as reduction in 50 uM DPPH-induced charge transfer resistance at 100 uM by admittance spectroscopic analysis; format: functional, cell membranes; design: scale not given: the % may be the effect or the level left
[8] = system: MCF7; assay: Cytotoxicity against human MCF7 cells at 100 uM after 24 hrs by MTS assay; format: cell-based; conditions: mcf7, 24 h
[9] = Binding affinity to planer lipid bilayer assessed as reduction in charge transfer resistance by admittance spectroscopic analysis; format: physicochemical
[10] = Induction of blebbing morphology in human erythrocytes up to 100 uM after 1 hr by cold field emission scanning electron microscopic analysis; format: cell-based; conditions: erythrocyte
[11] = system: Radical scavenging activity; assay: Antioxidant activity assessed as DPPH free radical scavenging activity at <100 uM after 45 mins by UV-visible spectrophotometric analysis relative to vitamin C; format: functional
[12] = system: Radical scavenging activity; assay: Antioxidant activity assessed as DPPH free radical scavenging activity at >100 uM after 45 mins by UV-visible spectrophotometric analysis relative to vitamin C; format: functional
[13] = Induction of budding morphology in human erythrocytes up to 100 uM after 1 hr by cold field emission scanning electron microscopic analysis; format: cell-based; conditions: erythrocyte
[14] = Binding affinity to planer lipid bilayer assessed as increase in anodic current by cyclic voltammetric analysis; format: physicochemical
[15] = Antioxidant activity in planer lipid bilayer membrane assessed as inhibition of DPPH-induced reduction in height of semicircle at 50 to 100 uM by admittance spectroscopic analysis; format: functional, cell membranes
[16] = Antioxidant activity in planer lipid bilayer membrane assessed as reduction in 50 uM DPPH-induced charge transfer resistance at 50 uM by admittance spectroscopic analysis; format: functional, cell membranes; design: scale not given: the % may be the effect or the level left
[17] = Induction of morphological changes in human erythrocytes at => 60 uM after 1 hr by cold field emission scanning electron microscopic analysis; format: cell-based; conditions: erythrocyte
[18] = Antioxidant activity in planer lipid bilayer membrane assessed as reduction in 100 uM DPPH-induced charge transfer resistance at 50 uM by admittance spectroscopic analysis; format: functional, cell membranes; design: scale not given: the % may be the effect or the level left
[19] = Binding affinity to planer lipid bilayer assessed as reduction in diameter of semicircle pattern at up to 60 uM by admittance spectroscopic analysis; format: physicochemical
[20] = Induction of destruction morphology in human erythrocytes up to 100 uM after 1 hr by cold field emission scanning electron microscopic analysis; format: cell-based; conditions: erythrocyte
[21] = Binding affinity to curcumin encapsulated liposomes assessed as curcumin release from unilamellar vesicles after 20 mins by NMR spectroscopic analysis

- Activity [2]: Dose-dependent effect
- Activity [3]: Dose-dependent effect
- Activity [5]: Dose-dependent effect
- Activity [6]: 17%
- Activity [9]: Active
- Activity [14]: Dose-dependent effect
- Activity [19]: Active
- Activity [21]: Dose-dependent effect
Structure (SMILES): Oc1ccc(/C=C/c2cc(O)cc(O)c2)cc1 [RESVERATROL]
- Activity [1]: 10.9%
- inhibition [4]: Active
- Activity [7]: 7.7%
- Activity [8]: 50%
- Activity [10]: Toxic
- Activity [11]: Active
- Activity [12]: Active
- Activity [13]: Toxic
- inhibition [15]: Active
- Activity [16]: 19.5%
- Activity [17]: Non-toxic
- Activity [18]: 22%
- Activity [20]: Toxic
